# Results: US9957271B2, “Substituted bicyclic aza-heterocycles and analogues as sirtuin modulators” (GlaxoSmithKline, LLC, priority 2012, dated 2018)
# Where two headings read alike, the source gives them in different places.
# Biological target: T1, SIRT1 (Homo sapiens, UniProt Q96EB6)
# T1 sequence (Q96EB6 1-747): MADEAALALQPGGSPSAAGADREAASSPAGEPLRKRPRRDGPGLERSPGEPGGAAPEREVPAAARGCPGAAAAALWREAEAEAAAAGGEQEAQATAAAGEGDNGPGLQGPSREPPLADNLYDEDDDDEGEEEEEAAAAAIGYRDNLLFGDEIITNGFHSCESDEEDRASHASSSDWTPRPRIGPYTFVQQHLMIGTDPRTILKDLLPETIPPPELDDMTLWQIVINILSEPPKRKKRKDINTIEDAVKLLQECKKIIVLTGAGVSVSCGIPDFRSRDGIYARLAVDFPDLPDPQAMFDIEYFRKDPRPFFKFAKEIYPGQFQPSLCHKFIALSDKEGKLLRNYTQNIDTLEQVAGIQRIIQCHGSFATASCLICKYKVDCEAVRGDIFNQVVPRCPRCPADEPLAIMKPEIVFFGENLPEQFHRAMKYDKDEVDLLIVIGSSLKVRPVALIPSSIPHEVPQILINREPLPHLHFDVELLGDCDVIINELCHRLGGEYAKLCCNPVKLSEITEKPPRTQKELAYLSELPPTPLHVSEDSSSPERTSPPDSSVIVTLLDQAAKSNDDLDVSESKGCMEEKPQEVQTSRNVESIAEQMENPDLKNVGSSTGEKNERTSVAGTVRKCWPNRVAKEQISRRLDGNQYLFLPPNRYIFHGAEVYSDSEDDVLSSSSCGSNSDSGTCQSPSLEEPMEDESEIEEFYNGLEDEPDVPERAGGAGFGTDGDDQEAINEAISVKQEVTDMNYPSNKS
# Experiment: TAMRA based mass spectrometry assay of SIRT1 activity
# Assay type: biochemical
# Settings: for Emax: read-out: TAMRA % Fold Act
# How it was run: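 Recombinant N-terminal His-tagged human SIRT1 (10 nM, E. coli) incubated 25 min at 25 °C with 0.5 μM 5TMR-labelled p53-derived acetyl-peptide and 120 μM βNAD+ in Tris-acetate pH 8 buffer with DTT and 0.05% BSA, compound at varying concentrations. Stopped with formic acid; deacetylated peptide or OAADPR measured by mass spectrometry relative to DMSO controls.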
# [1] = TAMRA peptide substrate, concentration giving 150% activation of SIRT1
# [2] = TAMRA peptide substrate, percent maximum fold activation
# [3] = TAMRA assay, concentration giving 150% activation of SIRT1
# [4] = TAMRA assay, percent maximum fold activation
# [5] = concentration of test compound giving 150% activation of SIRT1, TAMRA peptide substrate
# [6] = percent maximum fold activation of SIRT1, TAMRA peptide substrate
SMILES,TAMRA EC1.5 (μM) [3],Emax [4] [%],other results
Cc1nn2ccc(-c3ccccc3C(F)(F)F)nc2c1NC(=O)c1cccc(CN2CCOCC2)n1 [Compound 573],–,–,TAMRA EC1.5 [1]: B (EC1.5 1-25 μM); Emax [2]: < 350%
Cc1nc2c(C)cc(-c3ccccc3OC(F)(F)F)nn2c1C(=O)Nc1ccncc1F [Compound 494],–,–,TAMRA EC1.5 [1]: A (EC1.5<1 μM); Emax [2]: ≥ 350%
Cc1cc(C)nc(NC(=O)c2cnc3ccc(-c4ccccc4Cl)nn23)c1 [Compound 245],A (EC1.5<1 μM),≥ 350,–
N#Cc1ccccc1-c1ccc2ncc(NC(=O)c3ncccn3)n2n1 [Compound 331],B (EC1.5 1-25 μM),≥ 350,–
N#Cc1ccccc1-c1ccc2ncc(NC(=O)c3cccc(N4CCOCC4)n3)n2n1 [Compound 337],A (EC1.5<1 μM),≥ 350,–
Cc1nc2ccc(-c3ccccc3Cl)nn2c1NC(=O)c1cscn1 [Compound 350],C (EC1.5>25 μM),< 350,–
O=C(Nc1cnc2ccc(-c3ccccc3Cl)nn12)c1cccc(N2CCOCC2)n1 [Compound 307],A (EC1.5<1 μM),≥ 350,–
O=C(Nc1ccncc1)c1cnc2ccc(-c3cccc(F)c3Cl)nn12 [Compound 181],–,–,TAMRA EC1.5 (μM) [5]: B (EC1.5 1-25 μM); Emax [6]: < 350%
O=C(Nc1cccc(N2CCOCC2)n1)c1cnc2ccc(-c3cccc(Cl)c3F)nn12 [Compound 158],–,–,TAMRA EC1.5 (μM) [5]: A (EC1.5<1 μM); Emax [6]: ≥ 350%
Cc1scnc1C(=O)Nc1cnc2c(C)c(C)c(-c3ccccc3Cl)nn12 [Compound 385],A (EC1.5<1 μM),≥ 350,–
N#Cc1ccccc1-c1ccc2ncc(NC(=O)c3ccncn3)n2n1 [Compound 330],B (EC1.5 1-25 μM),< 350,–
Cc1nc2ccc(-c3ccccc3C(F)(F)F)nn2c1NC(=O)c1cccc(N2CCOCC2)n1 [Compound 382],A (EC1.5<1 μM),≥ 350,–
N#Cc1ccccc1-c1ccc2ncc(C(=O)Nc3cnccn3)n2n1 [Compound 205],B (EC1.5 1-25 μM),< 350,–
Cc1nccc(NC(=O)c2c(C)nc3c(C)cc(-c4ccccc4C(F)(F)F)nn23)n1 [Compound 729],A (EC1.5<1 μM),≥ 350,–
CCOc1ccc(NC(=O)c2c(C)nn3ccc(-c4ccccc4C(F)(F)F)nc23)nn1 [Compound 697],A (EC1.5<1 μM),≥ 350,–
COc1nccnc1NC(=O)c1cnc2c(C)cc(-c3ccccc3C(F)(F)F)nn12 [Compound 595],–,–,TAMRA EC1.5 [1]: A (EC1.5<1 μM); Emax [2]: < 350%
Cc1ccnc(NC(=O)c2cnn3ccc(-c4ccccc4C(F)(F)F)nc23)c1 [Compound 501],–,–,TAMRA EC1.5 [1]: A (EC1.5<1 μM); Emax [2]: ≥ 350%
Cc1cc(C)nc(NC(=O)c2cnn3ccc(-c4ccccc4C(F)(F)F)nc23)c1 [Compound 502],–,–,TAMRA EC1.5 [1]: A (EC1.5<1 μM); Emax [2]: ≥ 350%
"O=C(Nc1cccc(N2CCC2)n1)c1nnc2ccc(-c3ccccc3C(F)(F)F)nn12 [Compound 73, N-(6-(azetidin-1-yl)pyridin-2-yl)-6-(2-(trifluoromethyl)phenyl)-[1,2,4]-triazolo[4,3-b]pyridazine-3-carboxamide]",–,–,TAMRA EC1.5 (μM) [5]: A (EC1.5<1 μM); Emax [6]: < 350%
COCCOc1cc(NC(=O)c2cnc3c(C)cc(-c4ccccc4C(F)(F)F)nn23)ncn1 [Compound 662],A (EC1.5<1 μM),< 350,–
O=C(Nc1ccnc(N2CCC2)c1)c1cnc2ccc(-c3c(F)cccc3Cl)nn12 [Compound 165],–,–,TAMRA EC1.5 (μM) [5]: B (EC1.5 1-25 μM); Emax [6]: ≥ 350%
Cc1nc(NC(=O)c2cnn3ccc(-c4ccccc4C(F)(F)F)nc23)sc1C [Compound 509],–,–,TAMRA EC1.5 [1]: A (EC1.5<1 μM); Emax [2]: ≥ 350%

SMILES,TAMRA EC1.5 (μM) [3],Emax [4] [%],other results
Cc1cc(OCC(O)CO)nc(NC(=O)c2cnc3ccc(-c4ccccc4F)nn23)n1 (centres unmarked) [Compound 286],B (EC1.5 1-25 μM),< 350,–
O=C(Nc1ccnc(N2CCC2)c1)c1cnc2ccc(-c3ccccc3C(F)F)nn12 [Compound 52],–,–,TAMRA EC1.5 (μM) [5]: A (EC1.5<1 μM); Emax [6]: ≥ 350%
Cc1cnc(C(=O)Nc2cnc3ccc(-c4ccccc4C(F)(F)F)nn23)s1 [Compound 123],–,–,TAMRA EC1.5 (μM) [5]: A (EC1.5<1 μM); Emax [6]: ≥ 350%
Cc1nc2ccc(-c3ccccc3C(F)(F)F)nn2c1C(=O)Nc1ccc(Cl)cn1 [Compound 673],A (EC1.5<1 μM),≥ 350,–
Cc1cc(NC(=O)c2cnc3ccc(-c4ccccc4C(F)(F)F)nn23)cc(OC[C@H](O)CO)n1 [Compound 557],–,–,TAMRA EC1.5 [1]: A (EC1.5<1 μM); Emax [2]: ≥ 350%
COc1cc(NC(=O)c2cnn3ccc(-c4ccccc4OC(F)(F)F)nc23)ncn1 [Compound 703],A (EC1.5<1 μM),≥ 350,–
Cc1nc(C(=O)Nc2cnc3ccc(-c4ccccc4C#N)nn23)c(C)s1 [Compound 334],A (EC1.5<1 μM),≥ 350,–
"O=C(Nc1cccc(N2CCOCC2)n1)c1cnc2ccc(-c3ccccc3OCC(O)CO)nn12 (centres unmarked) [Compound 367, 6-(2-(2,3-dihydroxypropoxy)phenyl)-N-(6-morpholinopyridin-2-yl)imidazo[1,2-b]pyridazine-3-carboxamide]",A (EC1.5<1 μM),≥ 350,–
O=C(Nc1cnc2ccc(-c3ccccc3Cl)nn12)c1nccs1 [Compound 294],B (EC1.5 1-25 μM),< 350,–
Cc1nc(C(=O)Nc2cnc3ccc(-c4ccccc4C(F)(F)F)nn23)c(C)s1 [Compound 220],A (EC1.5<1 μM),≥ 350,–
O=C(Nc1cnccn1)c1cnc2ccc(-c3cccc(F)c3Cl)nn12 [Compound 184],–,–,TAMRA EC1.5 (μM) [5]: B (EC1.5 1-25 μM); Emax [6]: < 350%
Cc1cnc(C(=O)Nc2cnc3ccc(-c4ccccc4C#N)nn23)s1 [Compound 336],B (EC1.5 1-25 μM),≥ 350,–
COc1ccc(NC(=O)c2cnn3ccc(-c4ccccc4OC(F)(F)F)nc23)nn1 [Compound 635],A (EC1.5<1 μM),≥ 350,–
Cc1cccc(NC(=O)c2c(C)nc3c(C)cc(-c4ccccc4C(F)(F)F)nn23)n1 [Compound 458],–,–,TAMRA EC1.5 [1]: A (EC1.5<1 μM); Emax [2]: ≥ 350%
Cc1cc(NC(=O)c2cnc3ccc(-c4ccccc4C(F)(F)F)nn23)cc(C)n1 [Compound 99],–,–,TAMRA EC1.5 (μM) [5]: A (EC1.5<1 μM); Emax [6]: ≥ 350%
Cc1cc2ncc(C(=O)Nc3cnccn3)n2nc1-c1ccccc1C(F)(F)F [Compound 246],B (EC1.5 1-25 μM),≥ 350,–
COCCn1cc(NC(=O)c2cnc3ccc(-c4ccccc4C(F)(F)F)nn23)cn1 [Compound 154],–,–,TAMRA EC1.5 (μM) [5]: B (EC1.5 1-25 μM); Emax [6]: ≥ 350%
O=C(Nc1cnc2ccc(-c3ccccc3OC(F)(F)F)nn12)c1ccccn1 [Compound 312],A (EC1.5<1 μM),≥ 350,–
O=C(Nc1cccc(N2CCOCC2)n1)c1cnn2ccc(-c3ccccc3OC(F)(F)F)nc12 [Compound 534],–,–,TAMRA EC1.5 [1]: A (EC1.5<1 μM); Emax [2]: ≥ 350%
O=C(Nc1cccnc1)c1cnc2ccc(-c3ccccc3Cl)nn12 [Compound 118],–,–,TAMRA EC1.5 (μM) [5]: B (EC1.5 1-25 μM); Emax [6]: < 350%
O=C(Nc1ccncc1)c1cnn2ccc(-c3ccccc3OC(F)(F)F)nc12 [Compound 531],–,–,TAMRA EC1.5 [1]: A (EC1.5<1 μM); Emax [2]: ≥ 350%
